We go through 12 compounds from patent US8546421B1, “Oncogenic-RAS-signal dependent lethal compounds” (The Trustees of Columbia University in the City of New York, priority 2007, dated 2013).

The GI50 is the concentration that inhibits growth by half. Usually EC50 stands for the concentration giving half of the maximal effect.

Values joined by “and” are separate entries in the source; they are usually repeats but may differ in a detail not shown here. Equal entries are not always repeated. Structures can show the parent of a compound that is named as a salt.

For experiment [1], the system named is BJeH, BJeHLT, BJeLR and DRD cells. Briefly: Cell growth inhibition by stereoisomers of Compound 27. The conditions noted are these: for cell growth inhibition (in words): BJeH, BJeHLT, BJeLR, DRD cells.
Experiment [2] has as its system Calu-1 cells expressing shRNAs targeting HRAS, NRAS or KRAS. Nature of the experiment: Drug sensitivity after shRNA knockdown of RAS. In kind it is cell-based, human. The conditions noted are these: alamar blue. The protocol: On day one, 3×10^5 Calu-1 cells or 2×10^5 HT1080 cells were seeded in 10-cm dishes; on day 2, frozen virus stock was thawed at 37° C., hexadimethrine bromide (polybrene) (Sigma, cat.#H9268) was added to the virus solution at a final concentration of 8 μg/mL and growth media from cell culture was replaced with the virus/polybrene mixture. The culture was returned to the tissue culture incubator for 2 hours, with rocking of the dishes every 30 min in order to prevent drying. After 2 h, 10 mL growth medium was added, the culture was incubated for 2 days, and cells stably expressing shRNA were selected by adding puromycin (Sigma, cat.#P9620) at a final concentration of 1.5 μg/mL.
On the day of experiment, assay plates were prepared by seeding 3,000 HT1080, HT1080-pLKO, HT1080-TfR1 KD, Calu-1, Calu-1-pLKO, or Calu-1-509 cells per well in 36 μL of growth media to black, clear bottom 384-well plates. Also, assay plates were prepared by seeding 1,500 shRNA infected HT1080 or Calu-1 cells per well. Cells in assay plates were treated with each lethal compound in a 2-fold dilution series by transferring 4 μL solution from a 10× lethal plate of Erastin, Compound 3, Compound 27, or Compound 36. […] Percent growth inhibition (% GI) was calculated using fluorescence intensity values.
(In general: The colour change of resazurin is a common sign of viable cells or microbes.)

Experiment [3] concerns PARP-1 cleavage in BJ-TERT/LT/ST/RAS^V12 cells. Briefly: Western blot of PARP-1 cleavage upon compound treatment. Format: cell-based, human. The conditions noted are these: Western blot with anti-PARP-1 antibody. The protocol:
2×10^6 BJ-TERT/LT/ST/RAS^V12 cells were seeded in 10 cm dishes and treated with 1 μM staurosporine, 10 μg/mL erastin, 20 μg/mL Compound 3, and 1 μg/mL Compound 27 for 16 h. Both dying cells and live cells in each 10 cm dish were harvested and collected in the same 15 mL tubes by centrifuging cell suspension at 1,000 rpm for 5 min. Cell pellets were washed three times with PBS and cells were lysed in 200 μL of denaturing lysis buffer (50 mM HEPES KOH [pH 7.4], 40 mM NaCl, 2 mM EDTA, 1.5 mM Na3VO4, 50 mM NaF, 10 mM sodium pyrophosphate, 10 mM sodium β-glycerophosphate, 0.5% Triton X-100, and protease inhibitor tablet [Roche, cat.#11836170001]). Protein content was quantified using a Bio-Rad protein assay reagent (Bio-Rad, cat.#500-00006). Equal amounts of protein were resolved on SDS-polyacrylamide gels. The electrophoresed proteins were transblotted onto a PVDF membrane, blocked with 5% milk, and incubated with rabbit primary antibodies specific to: PARP (Santa Cruz, cat.#sc-7150), cleaved caspase-3 (Cell Signaling Technology, cat.#9661) overnight at 4° C. The membrane was then incubated in IRDye 800 goat anti-rabbit antibody (Li-cor Bioscience cat.#926-32211) at 1:3,000 dilutions for 45 min at room temperature. After washing off the unbound antibodies, membranes were scanned using the Odyssey™ Imaging System (Li-cor Bioscience).

The subject of experiment [4] is cellular iron in BJ-TERT/LT/ST/RAS^V12 cells. Briefly: Cellular iron level by flow cytometry with Phen Green SK. In kind it is cell-based, human. Conditions: 24 hours treatment. The protocol:
Cells were seeded in 6-well plates (200,000 cells per well) in BJ medium. The next day, the cell monolayer was washed with phosphate buffered saline (“PBS”) twice and stained with 5 μM of Phen Green SK, diacetate (Molecular Probe, cat.#P14313) in PBS by incubating the plate for 15 minutes in a culture incubator. Cells were released with trypsin/EDTA, harvested in 2 mL PBS, and centrifuged at 1,000 rpm for 5 min. The cell pellet was re-suspended in 1 mL of PBS, the cell suspension was transferred to disposable FACS tubes, and the fluorescence profile of the sample was monitored using a FACSCalibur system (BD Biosciences).
A general note: A flow cytometer gives signals particle by particle.

Experiment [5] has as its system BJ cell system (BJ-TERT, BJ-TERT/LT/ST, BJ-TERT/LT/ST/RAS^V12, DRD cells). Nature of the experiment: Alamar blue potency and selectivity in the engineered BJ cell system. Conditions: for activity of analogs of Compound 27, percent growth inhibition (in words): cell viability assay, SAR of Compound 27; for growth inhibitory activity and selectivity in the BJ cell system (in words): alamar blue, structural analogs and hits.

Experiment [6] deals with HL-60(TB). Conditions: Leukemia.
For a further experiment, the system named is K-562. Nature of the experiment: NCI60 anti-cancer screening.
The subject of the next experiment is Calu-1. Briefly: Alamar Blue assay, additional cell lines. In kind it is cell-based, human. Conditions: Calu-1, Non-small cell lung carcinoma, Alamar Blue. From the text:
(§1) The results of this additional testing are summarized in Tables 7-10 (no additional cell lines were identified as sensitive for Compound 3). […] The tumor type, cell line, maximum percentage inhibition, the concentration of compound required to inhibit cell growth by 50%, and RAS mutation (if any) are also summarized.

Another experiment has as its system HT1080. Nature of the experiment: Alamar Blue assay, additional cell lines. In kind it is cell-based, human.
Text: as §1

Experiment [7] relates to BJELR (Foreskin fibroblasts w/ TERT, LT, ST, RAS). Nature of the experiment: Alamar Blue assay, additional cell lines. Format: cell-based, human.
Text: as §1

Experiment [8] concerns HL-60(TB). Nature of the experiment: cells. The conditions noted are these: Homo sapiens.
For another experiment, the system named is UO-31. Nature of the experiment: NCI60 anti-cancer screening.
The test system of a further experiment is 786-0. Nature of the experiment: NCI60 anti-cancer screening.
A further experiment concerns RXF393. Nature of the experiment: NCI60 anti-cancer screening.
In a further experiment the test system is U973. Briefly: Alamar Blue assay, additional cell lines. Format: cell-based.
Text: as §1

In the next experiment the test system is HeLa. Nature of the experiment: Alamar Blue assay, additional cell lines. In kind it is cell-based. Conditions: Cervical carcinoma.
Text: as §1

A further experiment concerns TC32. Nature of the experiment: Alamar Blue assay, additional cell lines. Format: cell-based.
Text: as §1

A further experiment relates to TC71. Nature of the experiment: Alamar Blue assay, additional cell lines. Format: cell-based.
Text: as §1

A further experiment relates to SK-ES-1. Nature of the experiment: Alamar Blue assay, additional cell lines. In kind it is cell-based. Conditions: anaplastic osteosarcoma.
Text: as §1

The next experiment concerns U-2 OS. Briefly: Alamar Blue assay, additional cell lines. Format: cell-based. The conditions noted are these: Osteosarcoma.
Text: as §1

A further experiment has as its system MES-CA. Briefly: Alamar Blue assay, additional cell lines. Format: cell-based. Conditions: Uterine sarcoma.
Text: as §1

For a further experiment, the system named is SK-UT. Briefly: Alamar Blue assay, additional cell lines. Format: cell-based. The conditions noted are these: Uterine, mixed mesodermal tumor.
Text: as §1

Another experiment has as its system SK-LMS-1. Briefly: Alamar Blue assay, additional cell lines. Conditions: Leimyosarcoma, vulva. Format: cell-based.
Text: as §1

A further experiment deals with ACHN. Briefly: NCI60 anti-cancer screening.
The test system of the next experiment is CAKI-1. Nature of the experiment: NCI60 anti-cancer screening. The conditions noted are these: Homo sapiens.

Turning to `COC(=O)c1ccc([C@H]2c3[nH]c4ccccc4c3C[C@@H](C(=O)OC)N2C(=O)CCl)cc1` [(1S,3S) Compound 27], the “cell growth inhibition (in words)” value in experiment [1] is “no appreciable growth inhibition”.
In the case of `COC(=O)c1ccc([C@@H]2c3[nH]c4ccccc4c3C[C@H](C(=O)OC)N2C(=O)CCl)cc1` [1R,3R Compound 27], in [1], the “cell growth inhibition (in words)” value is “no appreciable growth inhibition”.
Regarding `CN[C@@H]1C[C@H]2O[C@@](C)([C@@H]1OC)n1c3ccccc3c3c4c(c5c6ccccc6n2c5c31)C(=O)NC4` [staurosporine, reference compound], the “sensitivity of Calu-1 cells after RAS shRNA compared with parental cells” value in experiment [2] is listed as “loss of sensitivity to staurosporine was not observed”. Also, the “PARP-1 cleavage / type of cell death” value in experiment [3] is on record as “showed PARP-1 cleavage”.
Turning to `CC(=O)N(O)CCCCCNC(=O)CCC(=O)N(O)CCCCCNC(=O)CCC(=O)N(O)CCCCCN` [DFOM, deferoxamine mesylate], the “change of cellular iron level (PGSK fluorescence)” value in experiment [4] is given as “induced a peak shift in the fluorescence profile”.
As to `COC(=O)C1Cc2c([nH]c3ccccc23)C(c2ccc(NC(=O)CCCCCNC(=O)CCCCC3SCC4NC(=O)NC43)cc2)N1C(=O)CCl` (stereo not shown) [biotinylated analog of Compound 27], the “activity of analogs of Compound 27, percent growth inhibition (in words)” value in [5] is recorded as “not sufficiently active”.
`C=CC(=O)N1C(C(=O)OC)Cc2c([nH]c3ccccc23)C1c1ccc(C(=O)OC)cc1` (stereo not shown) [acryl analog]: the “activity of analogs of Compound 27, percent growth inhibition (in words)” value in experiment [5] is listed as “insufficiently active”.
For `COC(=O)C1Cc2c([nH]c3ccccc23)C(C)(C)N1C(=O)CCl` (stereo not shown) [Compound 28], the “growth inhibitory activity and selectivity in the BJ cell system (in words)” value in [5] is “virtually the same activity and selectivity”.
Regarding `CCOc1ccccc1-n1c(C(C)N2CCN(C(=O)COc3ccc(Cl)cc3)CC2)nc2ccccc2c1=O` (stereo not shown) [Erastin, reference compound], the “GI 100%” value in the experiment with HL-60(TB) [6] is greater than 10 µM; in the experiment on K-562 (K-562, Leukemia), greater than 10 µM; with UO-31 (UO-31, Renal Cancer), 1.63 µM; in the experiment on 786-0 (786-0, Renal Cancer), 4.12 µM; in the experiment with RXF393 (RXF393, Renal Cancer), 7.2 µM; in the experiment on ACHN (Renal Cancer) it was 2.5 µM. In addition, the concentration for 50% growth inhibition (GI50) in the experiment on K-562 (Homo sapiens, K562) was 3.39 µM; with Calu-1 (Homo sapiens), 6 µM; with HT1080 (Homo sapiens, HT-1080, Fibrosarcoma), 2 µM; in experiment [7] (Homo sapiens), 6 µM; in the experiment on HL-60(TB) [8] (HL-60), 2.26 µM; in the experiment with UO-31 (Homo sapiens, UO-31), 0.373 µM. Moreover, the concentration for 50% growth inhibition (GI50) in the experiment with 786-0 (Homo sapiens, 786-0) was 2.03 µM; with RXF393 (Homo sapiens, RXF 393), 2.16 µM; with U973 (U-973, Acute myelogenous leukemia), 10 µM; with HeLa (Homo sapiens) it was 0.6 µM; in the experiment with TC32 (Homo sapiens, TC-32, Peripheral neuroepithelioma), 8 µM; in the experiment with TC71 (TC-71, Ewing sarcoma), 10 µM. The concentration for 50% growth inhibition (GI50) in the experiment on SK-ES-1 (Homo sapiens, SK-ES1, Ewing sarcoma) was determined as 7 µM; with U-2 OS (Homo sapiens, U2OS), 6 µM; in the experiment on MES-CA it was 3 µM; in the experiment on SK-UT, 4 µM; in the experiment on SK-LMS-1 (Homo sapiens), 6 µM; in the experiment on ACHN (Homo sapiens), 0.979 µM. The same compound yielded a GI50 in the experiment with CAKI-1 (CAKI-1) of 2.15 µM. In addition, the CC50 in the experiment on K-562 (Homo sapiens, K562, read-out: LC 50%) is greater than 10 µM; in the experiment with HL-60(TB) [8] (HL-60, read-out: LC 50%), greater than 10 µM; in the experiment on UO-31 (Homo sapiens, UO-31, read-out: LC 50%), greater than 10 µM; in the experiment on 786-0 (Homo sapiens, 786-0, read-out: LC 50%), 8.36 µM; with RXF393 (Homo sapiens, RXF 393, read-out: LC 50%), greater than 10 µM; in the experiment with ACHN (Homo sapiens, read-out: LC 50%), 6.3 µM. Also, in the experiment on CAKI-1 (CAKI-1, read-out: LC 50%), the CC50 is greater than 10 µM. Also, the “Maximum Inhibition %” value with Calu-1 is 100%; with HT1080 (Fibrosarcoma), 98%; in experiment [7], 100%; in the experiment with U973 (Acute myelogenous leukemia) it was 73%; with HeLa it was 94%; in the experiment on TC32 (Peripheral neuroepithelioma) it was 88%. Besides, the “Maximum Inhibition %” value with TC71 (Ewing sarcoma) worked out at 92%; in the experiment with SK-ES-1 (Ewing sarcoma) it was 98%; in the experiment with U-2 OS, 96%; in the experiment with MES-CA, 100%; in the experiment with SK-UT, 73%; with SK-LMS-1, 100%.
With `COC(=O)c1ccc([C@H]2c3[nH]c4ccccc4c3C[C@H](C(=O)OC)N2C(=O)CCl)cc1` [1S,3R Compound 27], the “cell growth inhibition (in words)” value in experiment [1] is recorded as “strong cell growth inhibition in two cell lines”. Also, the EC50 in [1] (Homo sapiens) was ~0.005 µg/mL and ~10 nM. In addition, the “selective lethality (in words)” value in experiment [1] (mutant HRAS BJ tumor cell lines versus isogenic cell lines lacking oncogenic HRAS) is “selective lethality towards BJ tumor cell lines containing mutant HRAS”.
Consider `COC(=O)c1ccc([C@@H]2c3[nH]c4ccccc4c3C[C@@H](C(=O)OC)N2C(=O)CCl)cc1` [(1R,3S) Compound 27], for which the “cell growth inhibition (in words)” value in [1] is “no appreciable growth inhibition”.
For the compound `O=C(NN=Cc1c(O)ccc2ccccc12)c1ccncc1` [Compound 311], the “change of cellular iron level (PGSK fluorescence)” value in [4] is given as “induced a peak shift in the fluorescence profile”.
Regarding `COC(=O)C1=C(C)NC2=C(C(=O)CC(c3ccc(Cl)cc3)C2)C1c1ccccc1F` (stereo not shown) [Compound 5], the “growth inhibitory activity and selectivity in the BJ cell system (in words)” value in experiment [5] is “varied potency and selectivity”.
